The nature of data set [1]: Log Pow (octanol/water partition coefficient) of direct dyes. Particulars: octanol/water partition coefficient of the dye.
Data set [2] is described as follows: Color removal (ΔE) from HC blue 15 dyed, multiple-shampooed platinum bleached hair, with co-surfactants and cyclic compounds. Particulars: 30 min 40° C.
A short description of data set [3]: Color removal (ΔE) from hair swatches dyed with HC Blue 15, soaked 30 minutes at 40° C., shampooed once. On the procedure: Unless otherwise indicated, hair swatches were all treated using the same protocol. Specifically, 2 g dyed hair swatches were soaked in 80 g treatment solutions or samples in water for 30 minutes at 40° C., then the treated hair swatches were then shampooed once and blow-dried for evaluation.

A short description of data set [4]: Controlled color removal of two-tone colored hair over one, three and six shampoo washes. The conditions noted are these: 10% TBuMA Cl added to commercial shampoo containing about 9% SLES, up to six washes. From the text:
The swatches were then washed with either the shampoo alone (control) or shampoo with TBuMA Cl and evaluated after one, three and six washes. Without addition of TBuMA Cl, the indigo color shifts to green as the number of shampoos increased. This is because Basic Red 51, a cationic direct dye, is washed out faster from hair by washing with shampoo than the HC Blue 15.

A short description of data set [5]: Color removal (ΔE) from hair swatches dyed with hydroxyanthraquinoneaminopropyl methyl morpholinium methosulfate, 23° C. Particulars: 6% SLES in water; 30 min 23° C.

From patent publication US11173102B1, “Methods and compositions for removing color from color-treated hair” (L'Oreal, priority 2020, dated 2021) come the findings set out here.

“And” between values parts separate entries of the source, which are not always exact repeats. Equal values may be shown once.

On to `CNc1cc(OCC(O)CO)ccc1[N+](=O)[O-]` (stereo not drawn) [2-NITRO-5-GLYCERYL METHYLANILINE], for which, in data set [1], the “Log Pow” value is 0.89.
Take `O=[N+]([O-])c1cc(O)ccc1NCCO` [3-NITRO-P-HYDROXYETHYLAMINOPHENOL]: the “Log Pow” value in data set [1] worked out at 0.21.
Still for that read-out and setting: then `Nc1ccc(O)cc1[N+](=O)[O-]` [4-AMINO-3-NITROPHENOL], with 1.19.
Still for that read-out and setting: then `Nc1c(N=Nc2ccc([N+](=O)[O-])cc2)c(S(=O)(=O)[O-])cc2cc(S(=O)(=O)[O-])c(N=Nc3ccccc3)c(O)c12.[Na+].[Na+]` [ACID BLACK 1], with 1.2; and `CCN(Cc1cccc(S(=O)(=O)[O-])c1)c1ccc(C(=C2C=CC(=[N+](CC)Cc3cccc(S(=O)(=O)[O-])c3)C=C2)c2ccccc2S(=O)(=O)[O-])cc1.[Na+].[Na+]` [ACID BLUE 9], with −0.32; and `Cc1ccc(Nc2ccc(Nc3ccc(C)cc3S(=O)(=O)[O-])c3c2C(=O)c2ccccc2C3=O)c(S(=O)(=O)[O-])c1.[Na+].[Na+]` [ACID GREEN 25], with 5.71.
The same measure, in the same setting: then `O=S(=O)([O-])c1ccc(N=Nc2c(O)ccc3ccccc23)cc1.[Na+]` [ACID ORANGE 7], with 1.4.
`O=S(=O)(O)c1cc(S(=O)(=O)O)c2c(/N=N\c3ccc(S(=O)(=O)O)c4ccccc34)c(O)ccc2c1` [ACID RED18]: the “Log Pow” value in data set [1] was 1.63.
Same read-out and setting: then `Nc1cc(S(=O)(=O)[O-])cc2cc(S(=O)(=O)[O-])c(N=Nc3ccccc3)c(O)c12.[Na+].[Na+]` [ACID RED 33], with 0.5; and `CCN(CC)c1ccc2c(-c3ccc(S(=O)(=O)[O-])cc3S(=O)(=O)[O-])c3ccc(=[N+](CC)CC)cc-3oc2c1.[Na+]` [ACID RED 52], with 1.3.
Turning to `O=C([O-])c1c(Cl)c(Cl)c(Cl)c(Cl)c1-c1c2cc(Br)c(=O)c(Br)c-2oc2c(Br)c([O-])c(Br)cc12.[Na+].[Na+]` [ACID RED 92], in data set [1], the “Log Pow” value is recorded as 3.
On to `Cc1ccc(Nc2ccc(O)c3c2C(=O)c2ccccc2C3=O)c(S(=O)(=O)[O-])c1.[Na+]` [ACID VIOLET 43], for which the “Log Pow” value in data set [1] turned out to be 3.1.
Still for that read-out and setting: then `O=C([O-])C1=NN(c2ccc(S(=O)(=O)[O-])cc2)C(=O)C1N=Nc1ccc(S(=O)(=O)[O-])cc1.[Na+].[Na+].[Na+]` (stereo not drawn) [ACID YELLOW 23], with −10.17; and `C[N+](C)(C)c1cccc(N=C2C=C(N)c3c(O)c(Br)cc(N)c3C2=O)c1.[Cl-]` [BASIC BLUE 99], with 1.88.
On the same count and under the same terms, the same measure for `C[N+](C)(C)c1ccc2ccc(O)c(N=Nc3ccc(N)c([N+](=O)[O-])c3)c2c1.[Cl-]` [BASIC BROWN 17]: −0.15; for `Cn1cc[n+](C)c1N=Nc1ccc(N)cc1.[Cl-]` [BASIC ORANGE 31]: −2.31.
On to `CN(C)c1ccc(N=Nc2n(C)cc[n+]2C)cc1.[Cl-]` [BASIC RED 51], for which the “Log Pow” value in data set [1] is given as −1.97; in data set [1] (listed as Basic Red 51), “around −1.97”.
Turning to `CC1=NN(c2ccccc2)C(=O)C1N=Nc1cccc([N+](C)(C)C)c1.[Cl-]` (stereo not drawn) [BASIC YELLOW 57], the “Log Pow” value in data set [1] came out at 0.06.
`CN(N=Cc1cc[n+](C)cc1)c1ccccc1` [BASIC YELLOW 87]: the “Log Pow” value in data set [1] is recorded as −1.69.
For the compound `OCc1ccccc1` [Benzyl Alcohol, benzyl alcohol], the ΔE in data set [2] (10% Benzyl Alcohol, hair pre-shampooed 6×) is 9.4.
For the compound `Nc1ccc(N)c2c1C(=O)c1ccccc1C2=O` [DISPERSE VIOLET 1], the “Log Pow” value in data set [1] was found to be 3.
Turning to `CCO` [EtOH, ethanol], the ΔE in data set [2] (16% EtOH, hair pre-shampooed 4×) stood at 1.77; in data set [2] (16% EtOH, hair pre-shampooed 6×), 1.8.
As for `O=[N+]([O-])c1cc(N(CCO)CCO)ccc1NCCO` [HC BLUE NO. 2], the “Log Pow” value in data set [1] is −0.32.
Consider `O=C1c2ccccc2C(=O)c2c(NCC(O)CO)ccc(NCC(O)CO)c21` (stereo not drawn) [HC BLUE NO. 14], for which, in data set [1], the “Log Pow” value is reported as 2.09.
Take `CC1=CC(=C(c2cc(C)c(N)c(C)c2)c2c(Cl)cccc2Cl)C=C(C)C1=N.O=P(O)(O)O` [HC BLUE NO. 15]: the results for the “Log Pow” value in data set [1], in data set [1] (listed as HC Blue 15) and in data set [1] (listed as HC blue 15) were 3.47, “around 3.47” and “around 3.47”, respectively.
In the case of `NCCNc1ccc(OCCO)cc1[N+](=O)[O-]` [HC ORANGE NO. 2], the “Log Pow” value in data set [1] was found to be 0.13.
On the same count and under the same terms, the same measure for `Nc1ccc(NCCO)c([N+](=O)[O-])c1` [HC RED NO.3]: −0.42.
Still for that read-out and setting: then `Cc1cc(N)c([N+](=O)[O-])cc1NCCO` [HC VIOLET NO 1], with 0.67; and `O=[N+]([O-])c1cc(N(CCO)CCO)ccc1NCCCO` [HC VIOLET NO 2], with 0.608.
Still for that read-out and setting: then `COc1ccc([N+](=O)[O-])c(NCCN)c1.Cl` [HC YELLOW NO.9], with 1.3; and `Cc1cc(N(CCO)CCO)ccc1N=Nc1ccc(N)cc1` [HC YELLOW NO. 7], with 2.59.
On to `CCCC[N+](C)(CCCC)CCCC.[Cl-]` [TBuMA Cl, tributylmethyl ammonium chloride], for which, in data set [3] (10 wt.% organic salt, 0 wt. % SLES, 30 min 40° C.), the ΔE is listed as 1.8. Besides, in data set [4] (versus shampoo alone), the “leaching of Basic Red 51” value is given as “deterred or inhibited” and the “removal of HC Blue 15” value is listed as “accelerated”. In data set [4], the “indigo color tone during shampooing” value is listed as “maintained”. Further, the ΔE in data set [2] (10% TBuMA Cl, hair pre-shampooed 4×) came to 3.63.
Take `COS(=O)(=O)[O-].C[N+]1(CCCNc2ccc(O)c3c2C(=O)c2ccccc2C3=O)CCOCC1` [hydroxyanthraquinoneaminopropyl methyl morpholinium methosulfate]: the “Log Pow” value in data set [1] was 0.89; in data set [1] (listed as hydroxyanthraquinoneaminopropyl methyl morpholinium methosulfate), “around 0.89”.
As for ACID YELLOW 3, the “Log Pow” value in data set [1] is on record as −1.05.
On the same count and under the same terms, the same measure for HC RED NO. 7: 0.13.
Regarding sodium laureth sulfate [SLES], the ΔE in data set [3] (0 wt.% organic salt, 3 wt. % SLES, 30 min 40° C.) was 21.08 and 21.1; in data set [3] (0 wt.% organic salt, 6 wt. % SLES, 30 min 40° C.) it was 21.81 and 21.4; in data set [3] (0 wt.% organic salt, 12 wt. % SLES, 30 min 40° C.), 21.84; in data set [3] (SLES alone, over the concentrations tested (3-12 wt. %)) it was 21-22; in data set [5] it was 18.2; in data set [2] (6% SLES, hair pre-shampooed 4×) it was 19.3. The compound further gave a ΔE in data set [2] (6% SLES, hair pre-shampooed 6×) of 15.01.
